Measurements published in publication PMC6881293, “Nanomolar-potency ‘co-potentiator’ therapy for cystic fibrosis caused by a defined subset of minimal function CFTR mutants” (Scientific Reports, 2019).

Tests used:
N1303K-CFTR = target: T1, N1303K-CFTR (Homo sapiens, UniProt P13569, N1303K); test: Short-circuit current in FRT cells expressing N1303K-CFTR; type: cell-based
T1 construct: expressed in transfected cells
Procedure: Based on prior studies[10],[11],[20], we hypothesized that distinct binding sites may be required to bind a potentiator and co-potentiator to rescue channel activity of CFTR mutants. We defined the potentiator VX-770 as a Class I compound, and co-potentiator ASP-11 as a Class II compound (Fig. 3A,D). Short-circuit current measurements in N1303K-CFTR-expressing FRT cells confirmed synergy when ASP-11 was added after VX-770 (Fig. 3Bi). […] In each experiment, CFTRinh-172 confirmed that current was from CFTR.
Figure 3 Definition of Class I and II CFTR potentiators. (A) Chemical structures of Class I and II potentiators. (B) Short-circuit current in FRT cells expressing N1303K-CFTR in response to forskolin and indicated potentiators. Concentrations: 20 μM forskolin, 5 μM VX-770, 20 μM ASP-11, 20 μM GLPG1837, 20 μM P2, 20 μM P3, 20 μM P5, 20 μM W1282Xpot-C01, and 10 μM CFTRinh-172. C. Short-circuit current in FRT cells expressing Q1313X-CFTR in response to forskolin and indicated potentiators. Concentrations: as in panel B, and 25 μM apigenin. (D) Summary of relative N1303K-CFTR activation in response to combinations of Class I and Class II potentiators. Mean ± S.E.M., n = 3. TEXT PRINTED IN THE PICTURE: (D) VX-770: N1303K-CFTR: P5: 1% ±1%; N1303K-CFTR: GLPG 1837: 10% ±5%; N1303K-CFTR: ASP-11: 100% ±3%; N1303K-CFTR: apigenin: 100% ±5% | (D) P5: N1303K-CFTR: VX-770: 1% ±1%; N1303K-CFTR: GLPG 1837: 2% ±2%; N1303K-CFTR: ASP-11: 52% ±5%; N1303K-CFTR: apigenin: 56% ±5% | (D) GLPG 1837: N1303K-CFTR: VX-770: 0% ±5%; N1303K-CFTR: P5: 2% ±2%; N1303K-CFTR: ASP-11: 100% ±4%; N1303K-CFTR: apigenin: 98% ±5% | (D) ASP-11: N1303K-CFTR: VX-770: 100% ±3%; N1303K-CFTR: P5: 47% ±4%; N1303K-CFTR: GLPG 1837: 100% ±5%; N1303K-CFTR: apigenin: 7% ±3% | (D) apigenin: N1303K-CFTR: VX-770: 100% ±5%; N1303K-CFTR: P5: 50% ±5%; N1303K-CFTR: GLPG 1837: 100% ±5%; N1303K-CFTR: ASP-11: 5% ±2% DOUBTS OF THE COPYIST ABOUT THIS PICTURE: Panel D is a matrix of pairs of substances (row substance combined with column substance). The picture prints no name for the measure, only % values and a 0%–100% colour scale. / The print in panel D is small, so 3, 5, 6 and 8 are hard to tell apart in these values. / VX-770 / GLPG 1837: ±5% could be ±3% / VX-770 / ASP-11: ±3% could be ±5% / VX-770 / apigenin: ±5% could be ±3% / P5 / ASP-11: 52% ±5%, digits uncertain / P5 / apigenin: 56% could be 58%, and ±5% is uncertain / GLPG 1837 / VX-770: 0% ±5%, error digit uncertain / GLPG 1837 / apigenin: 98% could be 96%, and ±5% is uncertain / ASP-11 / VX-770: ±3% could be ±5% / ASP-11 / GLPG 1837: ±5% could be ±3% / ASP-11 / apigenin: 7% ±3%, error digit uncertain / apigenin / VX-770: ±5% could be ±3% / apigenin / P5: 50% ±5%, digits uncertain / apigenin / GLPG 1837: ±5% could be ±3% / apigenin / ASP-11: 5% ±2%, the 5 is uncertain
Figures 5C,D show data in N1303K- and Q1313X-expressing FRT cells.
Short-circuit current was measured on cells cultured on Snapwell clear permeable supports (Corning) as described[10],[11]. Hemichambers were connected to a DVC-1000 voltage clamp (World Precision Instruments Inc., Sarasota, FL) via Ag/AgCl electrodes and 3 M KCl agar bridges for recording of the short-circuit current. For human airway epithelial cells, symmetrical HCO3^−-buffered solutions (in mM: 120 NaCl, 5 KCl, 1 MgCl2, 1 CaCl2, 5 Hepes, 25 NaHCO3, 10 glucose, pH 7.4) for basolateral and apical side were used. For FRT cells, the basolateral membrane was permeabilized with 250 μg/ml amphotericin B, and experiments were done with a chloride gradient using a HCO3^−-buffered solutions (Basolateral (mM): 120 NaCl, 5 KCl, 1 MgCl2, 1 CaCl2, 5 Hepes, 25 NaHCO3, 10 glucose, pH 7.4; apical (mM): 60 NaCl, 60 mM sodium gluconate, 5 KCl, 1 MgCl2, 1 CaCl2, 5 Hepes, 25 NaHCO3, 10 glucose, pH 7.4). All cells were equilibrated with 95% O2, 5% CO2 and maintained at 37 °C during experiments.

Q1313X-CFTR = target: T2, Q1313X-CFTR (Homo sapiens, UniProt P13569); test: Short-circuit current in FRT cells expressing Q1313X-CFTR; type: cell-based
T2 construct: expressed in transfected cells
T2 sequence (P13569 1-1312 limits assumed): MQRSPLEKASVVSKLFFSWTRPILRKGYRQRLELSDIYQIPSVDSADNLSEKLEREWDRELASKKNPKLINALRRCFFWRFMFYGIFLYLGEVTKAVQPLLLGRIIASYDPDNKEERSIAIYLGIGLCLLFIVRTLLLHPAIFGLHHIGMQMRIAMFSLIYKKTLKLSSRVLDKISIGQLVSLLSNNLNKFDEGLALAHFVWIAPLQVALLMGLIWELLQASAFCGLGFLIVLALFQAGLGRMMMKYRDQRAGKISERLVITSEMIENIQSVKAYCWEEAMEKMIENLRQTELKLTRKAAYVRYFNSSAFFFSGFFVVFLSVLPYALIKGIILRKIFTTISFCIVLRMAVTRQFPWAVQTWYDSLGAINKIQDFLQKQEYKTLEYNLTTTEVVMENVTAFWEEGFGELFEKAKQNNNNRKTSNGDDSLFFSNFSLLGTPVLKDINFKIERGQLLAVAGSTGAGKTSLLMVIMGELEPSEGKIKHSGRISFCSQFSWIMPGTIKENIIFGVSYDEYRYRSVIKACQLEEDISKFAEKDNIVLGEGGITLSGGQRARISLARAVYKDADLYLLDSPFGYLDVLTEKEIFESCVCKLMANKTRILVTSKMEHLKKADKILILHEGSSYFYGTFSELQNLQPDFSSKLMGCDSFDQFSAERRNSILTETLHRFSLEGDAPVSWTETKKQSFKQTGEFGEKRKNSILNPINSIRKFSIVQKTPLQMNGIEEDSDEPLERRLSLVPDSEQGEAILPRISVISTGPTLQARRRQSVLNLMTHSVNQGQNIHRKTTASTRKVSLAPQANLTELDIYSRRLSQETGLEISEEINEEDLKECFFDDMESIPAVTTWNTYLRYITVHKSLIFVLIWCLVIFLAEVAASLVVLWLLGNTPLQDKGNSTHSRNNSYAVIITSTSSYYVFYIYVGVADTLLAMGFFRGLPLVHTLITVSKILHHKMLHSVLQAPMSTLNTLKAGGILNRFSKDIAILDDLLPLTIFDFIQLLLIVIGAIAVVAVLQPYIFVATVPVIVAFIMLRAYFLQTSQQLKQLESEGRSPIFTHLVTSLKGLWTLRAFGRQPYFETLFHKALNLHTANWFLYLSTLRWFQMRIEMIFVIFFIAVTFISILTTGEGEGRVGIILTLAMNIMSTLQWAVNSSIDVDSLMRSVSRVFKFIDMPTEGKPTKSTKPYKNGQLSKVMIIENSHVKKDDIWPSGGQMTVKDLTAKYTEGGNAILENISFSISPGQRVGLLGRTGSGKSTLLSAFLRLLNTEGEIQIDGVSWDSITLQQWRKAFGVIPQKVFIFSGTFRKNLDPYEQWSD

T1 sequence (P13569 whole entry N1303K): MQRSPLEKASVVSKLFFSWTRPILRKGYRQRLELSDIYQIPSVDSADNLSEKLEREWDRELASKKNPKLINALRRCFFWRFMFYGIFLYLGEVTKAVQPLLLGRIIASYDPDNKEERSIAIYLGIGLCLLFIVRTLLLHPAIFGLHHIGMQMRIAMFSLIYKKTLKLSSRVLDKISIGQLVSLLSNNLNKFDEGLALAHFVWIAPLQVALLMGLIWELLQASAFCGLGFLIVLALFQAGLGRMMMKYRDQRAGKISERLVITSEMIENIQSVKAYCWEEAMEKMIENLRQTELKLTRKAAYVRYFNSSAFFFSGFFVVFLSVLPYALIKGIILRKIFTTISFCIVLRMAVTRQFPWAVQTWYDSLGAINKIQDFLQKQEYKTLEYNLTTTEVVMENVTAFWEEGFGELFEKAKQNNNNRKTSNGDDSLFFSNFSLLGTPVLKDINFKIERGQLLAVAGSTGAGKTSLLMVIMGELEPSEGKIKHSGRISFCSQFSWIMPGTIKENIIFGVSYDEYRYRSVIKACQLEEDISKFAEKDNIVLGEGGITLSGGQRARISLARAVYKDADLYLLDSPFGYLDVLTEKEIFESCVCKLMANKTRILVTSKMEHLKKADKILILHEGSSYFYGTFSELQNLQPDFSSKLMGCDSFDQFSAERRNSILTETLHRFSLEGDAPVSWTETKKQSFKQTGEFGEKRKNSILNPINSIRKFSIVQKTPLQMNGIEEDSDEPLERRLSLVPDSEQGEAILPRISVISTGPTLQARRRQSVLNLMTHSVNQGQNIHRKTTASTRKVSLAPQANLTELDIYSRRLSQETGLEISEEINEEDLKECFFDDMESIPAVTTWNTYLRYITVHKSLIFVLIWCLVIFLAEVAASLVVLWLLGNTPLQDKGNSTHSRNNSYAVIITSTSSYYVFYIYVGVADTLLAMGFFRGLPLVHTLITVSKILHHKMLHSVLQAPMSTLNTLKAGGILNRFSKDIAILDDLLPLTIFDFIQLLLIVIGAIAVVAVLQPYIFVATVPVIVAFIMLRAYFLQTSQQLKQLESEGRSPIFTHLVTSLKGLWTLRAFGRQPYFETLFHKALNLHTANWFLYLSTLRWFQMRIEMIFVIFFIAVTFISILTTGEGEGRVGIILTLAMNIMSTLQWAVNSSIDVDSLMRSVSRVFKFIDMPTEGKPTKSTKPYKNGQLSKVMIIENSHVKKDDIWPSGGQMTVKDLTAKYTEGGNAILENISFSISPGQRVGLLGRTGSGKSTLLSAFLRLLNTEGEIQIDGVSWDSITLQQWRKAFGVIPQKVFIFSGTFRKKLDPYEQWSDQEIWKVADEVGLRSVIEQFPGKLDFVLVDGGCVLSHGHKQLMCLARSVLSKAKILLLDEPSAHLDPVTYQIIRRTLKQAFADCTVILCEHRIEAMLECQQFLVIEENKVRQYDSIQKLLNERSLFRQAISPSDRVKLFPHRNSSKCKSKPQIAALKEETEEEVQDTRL

Compound: CCCCn1cc(S(=O)(=O)Nc2ccc(CC)cc2)c2cccnc21 [ASP-11]
- activation by two Class II potentiators added together (N1303K-CFTR; N1303K-CFTR FRT cells, 20 μM W1282Xpot-C01 and 20 μM ASP-11, no Class I potentiator): little activation
- short-circuit current response when added after VX-770 (N1303K-CFTR; N1303K-CFTR FRT cells, 20 μM forskolin, 5 μM VX-770, then 20 μM compound): synergy
- increase in chloride current with ASP-11 plus VX-770 compared to VX-770 alone (Q1313X-CFTR; Q1313X-CFTR FRT cells, 20 µM forskolin, 5 µM VX-770, 20 µM ASP-11, range stated jointly for I1234del- and Q1313X-CFTR): 3–9 fold

Compound: COc1ccc2[nH]c3c(c2c1)CCNC31CCN(Cc2ccc(F)cc2F)CC1 [Compound A061]
- EC50 (N1303K-CFTR; FRT cells expressing N1303K-CFTR, after 20 µM forskolin and 5 µM VX-770): 2.9 µM
- EC50 (Q1313X-CFTR; FRT cells expressing Q1313X-CFTR, after 20 µM forskolin and 5 µM VX-770): 5 µM

Compound: CC(C)(C)c1cc(C(C)(C)C)c(NC(=O)c2c[nH]c3ccccc3c2=O)cc1O [VX-770, ivacaftor]
- short-circuit current response when added after GLPG1837 (N1303K-CFTR; N1303K-CFTR FRT cells, 20 μM forskolin, 20 μM GLPG1837): mildly reduced current
- short-circuit current response when added after GLPG1837 (Q1313X-CFTR; Q1313X-CFTR FRT cells, 20 μM forskolin, 20 μM GLPG1837): reduced current
